# Assay results from US9511074B2, “Methods of treating disorders associated with protein polymerization” (UNIVERSITY OF PITTSBURGH—OF THE COMMONWEALTH SYSTEM OF …, priority 2009, dated 2016).
# Test system: ATZ in the liver
# Experiment: Hepatic load of ATZ in vivo in PiZ×GFP-LC3 mice (immunoblot, globule histology)
# Parameters: species or system mouse
# Source text: Transgenic Mice PiZ mice that have been bred into the C57/BL6 background have been described previously (1). For the second and third series of experiments with CBZ we used PiZ mice that were re-derived onto the FVB/N background for a move into a new animal facility. The transgene that was used to generate the PiZ mouse is a genomic fragment of DNA that contains the coding regions of the ATZ gene together with introns and ˜2 kilobases of upstream and downstream flanking regions (10). […] In this perspective it is not an exact phenocopy of the classical form of AT deficiency. In particular it cannot be a model for the loss-of-function mechanisms associated with the classical form of AT deficiency. It is known to have abundant expression of ATZ in hepatocytes and other cell types that express ATZ in humans (11). In the liver there are abundant ATZ-containing intrahepatocytic globules and inflammation that is characteristic of what is seen in the human liver (11,12). […] Taken together, these observations indicate that the PiZ mouse is an appropriate model for the gain-of-toxic function mechanism that is responsible for liver damage in the classical form of AT deficiency. Indeed, the fact that these mice are endowed with endogenous AT function and therein normal levels of AT in the serum and body fluids make them an even more ‘pure’ model for liver damage by gain-of-toxic function. PiZ×GFP-LC3 mice, which generated green fluorescent autophagosomes, have been described previously (2). PiZ×IKKβ.hep were generated by mating of PiZ to IKKβ.hep, which has conditional hepatocyte-specific disruption of NF.B activation (M. Karin, 17). There is increased injury in the liver of these mice as evidenced by the hepatic hydroxyproline content, 153.3% of that in the PiZ mouse (FIG. 7).
# Histology Sections of liver tissue were stained with hematoxylin and eosin, PAS, PAS after diastase treatment, TUNEL, PCNA, Ki67 and Sirius Red using standard techniques (18). Previous methods for staining with antibody to smooth muscle actin were used (19). Each was examined by the pathologist (GM) who was completely blinded to the experimental protocol. […] The number of inflammatory nodules, AT-containing globules and autophagosomes were each quantified blindly by counting cells in 6 microscopic fields of 10 different sections for each liver. The number of nuclei, as determined by Hoechst staining, was used to exclude the possibility that different numbers of cells were counted in liver sections from mice treated with CBZ as compared to controls. Hepatic hydroxyproline concentration was determined by a well-established protocol (20,21). […]
# For immunoblot on liver, the liver was snap frozen in liquid nitrogen and stored at −80° C. […] Total protein concentration was measured by BCA assay (Pierce). […]
# [1] = PiZ×GFP-LC3 mice, 250 mg kg-1 day-1 for 2 weeks by gavage
structure (smiles),measurement,setting,value
"NC(=O)N1c2ccccc2C=Cc2ccccc21 [CBZ, 5H-dibenz [b,f]azepine-5-carboxamide]",intrahepatocytic ATZ-containing globules,[1],marked decrease
same,"total, insoluble, and soluble ATZ in the liver",[1],marked decrease
same,"decrease in globule-containing hepatocytes, factor","quantitative morphometry, 250 mg kg-1 day-1 for 2 weeks, P<0.001",3.36
